The record followed here is ChEMBL document CHEMBL3227980, “Optically pure (+)-nicotine from (+/-)-nicotine and biological comparisons with (-)-nicotine” (J Med Chem, 1979).

Data set [1] in a line: Toxicity in iv dosed ICR mouse assessed as lethality. Conditions: in vivo.
The nature of another data set: in vivo. As to conditions: ICR, mouse, iv.

Regarding `CN1CCC[C@H]1c1cccnc1.O=C(O)C(O)C(O)C(=O)O.O=C(O)C(O)C(O)C(=O)O`, in data set [1], the LD50 came out at 0.38 mg/kg. The selectivity ratio in the data set “in vivo” is 7.24.

Turning to `CN1CCC[C@@H]1c1cccnc1.O=C(O)C(O)C(O)C(=O)O.O=C(O)C(O)C(O)C(=O)O`, the LD50 in data set [1] worked out at 2.75 mg/kg.

Usually LD50 stands for the dose at which mortality reaches 50%.
